In brackets after ≈: the same amount, converted by molar mass. Several values for one entry are separate records, joined by “and”; a condition that tells them apart may be missing. Identical values can stand only once. Bounds are passed on as bounds.

Here are results for 16 compounds from DBAASP.

Among the test systems are Escherichia coli; Staphylococcus aureus; Pseudomonas aeruginosa.
Holding throughout (assay): ≥ marks a high value that may be exact or a test limit, other limits are often not marked, values filed in µg/mL are converted to µM
In assay [1] the test system is Escherichia coli ATCC 25922.
Assay [2] has as its system Staphylococcus aureus ATCC 29213.
For assay [3], the system named is Pseudomonas aeruginosa ATCC 27853.

The term MIC denotes the least concentration at which growth counts as inhibited. Read a low MIC as a more susceptible organism. For `CC[C@H](C)[C@H](NC(=O)[C@H](CCCN=C(N)N)NC(=O)[C@H](CCC(=O)O)NC(=O)[C@H](CCCCN)NC(=O)[C@H](CCC(=O)O)NC(=O)[C@H](CCCCN)NC(=O)[C@H](CO)NC(=O)[C@H](CC(C)C)NC(=O)[C@@H](N)[C@@H](C)O)C(=O)N[C@H](C(=O)N[C@@H](CCC(N)=O)C(=O)N[C@@H](CCCN=C(N)N)C(=O)N[C@H](C(=O)N[C@@H](CCCN=C(N)N)C(=O)N[C@H](C(=O)N[C@@H](CO)C(=O)O)[C@@H](C)O)C(C)C)C(C)C` [TLSKEKERIVQRVRTS], the MIC (in assay [1]; in the assay on Escherichia coli) was greater than 25.9 µM in each case.
`CC[C@H](C)[C@H](NC(=O)[C@H](CCCN=C(N)N)NC(=O)[C@H](CCC(N)=O)NC(=O)[C@@H](NC(=O)[C@H](C)NC(=O)[C@H](CCCN=C(N)N)NC(=O)[C@H](CCCCN)NC(=O)[C@@H](N)Cc1ccccc1)C(C)C)C(=O)N[C@@H](CCCCN)C(=O)N[C@@H](CC(=O)O)C(=O)N[C@@H](Cc1ccccc1)C(=O)N[C@@H](CC(C)C)C(=O)N[C@@H](CCCN=C(N)N)C(=O)O` [FKRAVQRIKDFLR]: the MIC was 5 µM (≈ 8.39 µg/mL) in assay [1] and greater than 40 µM in assay [2].
Regarding `CC[C@H](C)[C@H](NC(=O)[C@H](CCCN=C(N)N)NC(=O)[C@@H](NC(=O)[C@H](CCCN=C(N)N)NC(=O)[C@H](CCC(N)=O)NC(=O)[C@H](Cc1cnc[nH]1)NC(=O)[C@@H](NC(=O)[C@H](CCCN=C(N)N)NC(=O)[C@H](CCCN=C(N)N)NC(=O)[C@H](CCCCN)NC(=O)[C@H](CCCN=C(N)N)NC(=O)[C@H](CCCCN)NC(=O)[C@H](CO)NC(=O)[C@H](CCCN=C(N)N)NC(=O)[C@@H](N)CCCCN)[C@@H](C)CC)C(C)C)C(=O)N[C@@H](CO)C(=O)O` [KRSKRKRRIHQRVRIS], the MIC (in assay [1]; with Escherichia coli) was greater than 23.8 µM throughout.
As to `CC(=O)N[C@@H](CC(C)C)C(=O)N[C@@H](CCCCN)C(=O)N[C@@H](CCCCN)C(=O)N[C@@H](CC(C)C)C(=O)N[C@@H](CC(C)C)C(=O)N[C@@H](CCCCN)C(=O)N[C@@H](CC(C)C)C(=O)N[C@@H](CC(C)C)C(=O)N[C@@H](CCCCN)C(=O)N[C@@H](CCCCN)C(=O)N1CCC[C@H]1C(=O)N[C@@H](CC(C)C)C(=O)N[C@@H](CCCCN)C(=O)N[C@@H](CC(C)C)C(N)=O` [LKKLLKLLKKPLKL], the values for the MIC in assay [1] and in assay [2] were 28.3 µM (≈ 48.6 µg/mL) and 40 µM (≈ 68.7 µg/mL), respectively.
In the case of `CC[C@H](C)[C@H](NC(=O)[C@H](Cc1c[nH]c2ccccc12)NC(=O)[C@H](CCCCN)NC(=O)[C@@H](NC(=O)[C@H](CC(C)C)NC(=O)[C@H](CCCCN)NC(=O)CNC(=O)[C@@H](NC(=O)[C@@H](NC(=O)[C@H](CO)NC(=O)[C@@H](NC(=O)[C@@H](NC(=O)[C@H](CCCCN)NC(=O)[C@H](CCC(N)=O)NC(=O)[C@H](C)NC(=O)[C@@H](N)CCSC)[C@@H](C)CC)[C@@H](C)CC)[C@@H](C)O)[C@@H](C)CC)C(C)C)C(=O)N[C@H](C(=O)N[C@@H](CCCCN)C(=O)N[C@H](C(=O)N[C@H](C(=O)N[C@@H](CC(N)=O)C(=O)N[C@@H](CCCCN)C(=O)N[C@@H](Cc1ccccc1)C(=O)N[C@H](C(=O)N[C@@H](CCCCN)C(=O)N[C@@H](CCCCN)C(=O)O)[C@@H](C)O)C(C)C)[C@@H](C)O)[C@@H](C)CC` [MAQKIISTIGKLVKWIIKTVNKFTKK], the results for the MIC against Escherichia coli and in the assay on Staphylococcus aureus were 3.8 µM (≈ 11.5 µg/mL) and 20 µM (≈ 60.4 µg/mL), respectively.
As for `CC(C)C[C@H](NC(=O)[C@H](CCCCN)NC(=O)[C@H](CC(C)C)NC(=O)[C@H](CC(C)C)NC(=O)[C@H](CCCCN)NC(=O)[C@H](CCCCN)NC(=O)[C@H](CC(=O)O)NC(=O)[C@H](CC(C)C)NC(=O)[C@H](CCCCN)NC(=O)[C@H](CC(C)C)NC(=O)[C@H](CC(C)C)NC(=O)[C@H](CCCCN)NC(=O)[C@H](CCCCN)NC(=O)[C@@H](N)CC(C)C)C(=O)N[C@@H](C)C(=O)NCC(=O)O` [LKKLLKLDKKLLKLAG], the MIC in assay [1] is 10 µM (≈ 18.2 µg/mL); in assay [2], greater than 40 µM.
On to `CC(=O)N[C@@H](CC(C)C)C(=O)N[C@@H](CCCCN)C(=O)N[C@@H](CCCCN)C(=O)N[C@@H](CC(C)C)C(=O)N[C@@H](CC(C)C)C(=O)N[C@@H](CCCCN)C(=O)N[C@@H](CC(C)C)C(=O)N1CCC[C@H]1C(=O)N[C@@H](CCCCN)C(=O)N[C@@H](CCCCN)C(=O)N[C@@H](CC(C)C)C(=O)N[C@@H](CC(C)C)C(=O)N[C@@H](CCCCN)C(=O)N[C@@H](CC(C)C)C(N)=O` [LKKLLKLPKKLLKL], for which the MIC is 56.6 µM (≈ 97.1 µg/mL) in assay [1] and greater than 80 µM in assay [2].
On to `CC(C)C[C@H](NC(=O)[C@H](CC(C)C)NC(=O)[C@H](C)NC(=O)[C@H](CCCCN)NC(=O)[C@H](C)NC(=O)[C@H](C)NC(=O)[C@H](C)NC(=O)[C@H](CC(C)C)NC(=O)[C@H](Cc1c[nH]c2ccccc12)NC(=O)[C@H](CCCCN)NC(=O)[C@H](C)NC(=O)[C@H](CC(C)C)NC(=O)[C@H](CC(C)C)NC(=O)[C@H](CCCCN)NC(=O)[C@H](CCCCN)NC(=O)[C@H](CC(C)C)NC(=O)[C@H](C)NC(=O)[C@@H](N)CCCCN)C(N)=O` [KALKKLLAKWLAAAKALL], for which the MIC turned out to be 6.1 µM (≈ 11.9 µg/mL) against Escherichia coli, 12.2 µM (≈ 23.8 µg/mL) in the assay with Pseudomonas aeruginosa and 1.5 µM (≈ 2.92 µg/mL) against Staphylococcus aureus.
Take `C[C@H](NC(=O)[C@H](C)NC(=O)[C@H](CCCCN)NC(=O)[C@H](C)NC(=O)[C@H](Cc1ccccc1)NC(=O)[C@H](Cc1c[nH]c2ccccc12)NC(=O)[C@H](CCCCN)NC(=O)[C@H](Cc1ccccc1)NC(=O)[C@H](CCCCN)NC(=O)[C@H](CCCCN)NC(=O)[C@H](C)NC(=O)[C@H](Cc1ccccc1)NC(=O)[C@@H](N)CCCCN)C(=O)N[C@@H](Cc1ccccc1)C(=O)N[C@@H](CCCCN)C(=O)N[C@@H](Cc1ccccc1)C(=O)N[C@@H](Cc1ccccc1)C(=O)N[C@@H](CCCCN)C(=O)N[C@@H](CCCCN)C(N)=O` [KFAKKFKWFAKAAFKFFKK]: the minimum inhibitory concentration (MIC) was 7.23 µM (≈ 17.3 µg/mL) in the assay with Escherichia coli and 4.17 µM (≈ 10 µg/mL) against Staphylococcus aureus.
As for `CC(C)C[C@H](NC(=O)[C@H](C)NC(=O)[C@H](Cc1ccc(O)cc1)NC(=O)[C@H](CC(C)C)NC(=O)[C@H](CCCN=C(N)N)NC(=O)[C@H](C)NC(=O)[C@H](CC(C)C)NC(=O)[C@H](CO)NC(=O)[C@H](C)NC(=O)[C@H](CC(C)C)NC(=O)[C@@H](N)CC(=O)O)C(=O)N[C@@H](C)C(=O)N[C@@H](CCCN=C(N)N)C(N)=O` [DLASLARLYALAR], the MIC in assay [1] and in assay [2] was greater than 489 µM throughout.
Take `CC(C)C[C@H](NC(=O)[C@H](C)NC(=O)[C@H](CCCCN)NC(=O)[C@H](CCCCN)NC(=O)[C@@H](N)CC(C)C)C(=O)N[C@@H](CCCCN)C(=O)N[C@@H](CC(C)C)C(=O)N[C@@H](CC(C)C)C(=O)N[C@@H](CCCCN)C(=O)N[C@@H](CCCCN)C(=O)N[C@@H](CC(C)C)C(=O)N[C@@H](CC(C)C)C(=O)N[C@@H](CCCCN)C(=O)N[C@@H](CC(C)C)C(=O)N[C@@H](C)C(=O)NCC(=O)O` [LKKALKLLKKLLKLAG]: the MIC in assay [1] and in assay [2] was 5 µM (≈ 8.89 µg/mL) each time.
As for `CC[C@H](C)[C@H](NC(=O)[C@H](CCSC)NC(=O)[C@H](C)NC(=O)[C@@H]1CCCN1C(=O)[C@@H](NC(=O)[C@@H](NC(=O)[C@H](CCCCN)NC(=O)[C@@H](NC(=O)[C@H](CC(C)C)NC(=O)CN)[C@@H](C)CC)[C@@H](C)CC)C(C)C)C(=O)N[C@H]1CSSC[C@@H](C(=O)O)NC(=O)[C@H](CCCCN)NC(=O)[C@H](CCCCN)NC(=O)[C@H]([C@@H](C)O)NC(=O)[C@H](C(C)C)NC(=O)[C@H](C)NC1=O` [GLIKIVPAMICAVTKKC], the MIC in assay [1], in assay [3] and in assay [2] was greater than 143 µM in each case.
With `CC(C)C[C@H](NC(=O)[C@H](C)NC(=O)[C@H](CC(C)C)NC(=O)[C@@H](N)CCCCN)C(=O)N[C@@H](CCCCN)C(=O)N[C@@H](C)C(=O)N[C@@H](C)C(=O)N[C@@H](CC(C)C)C(=O)N[C@@H](CCCCN)C(=O)N[C@@H](C)C(=O)N[C@@H](Cc1c[nH]c2ccccc12)C(=O)N[C@@H](CCCCN)C(=O)N[C@@H](C)C(=O)N[C@@H](C)C(=O)N[C@@H](C)C(=O)N[C@@H](CCCCN)C(=O)N[C@@H](CC(C)C)C(=O)N[C@@H](C)C(N)=O` [KLALKAALKAWKAAAKLA], the MIC against Escherichia coli was found to be 7.78 µM (≈ 14.5 µg/mL); in the assay with Pseudomonas aeruginosa it was 45 µM (≈ 83.9 µg/mL); against Staphylococcus aureus, 45 µM (≈ 83.9 µg/mL).
As for `CC[C@H](C)[C@H](NC(=O)[C@H](Cc1ccccc1)NC(=O)[C@H](CO)NC(=O)[C@H](CCCCN)NC(=O)[C@H](Cc1c[nH]c2ccccc12)NC(=O)[C@@H](N)CCCCN)C(=O)N[C@@H](CCCCN)C(=O)N[C@@H](CCCCN)C(=O)N[C@@H](CC(C)C)C(=O)N[C@H](C(=O)N[C@@H](CO)C(=O)N[C@@H](CCCCN)C(=O)N[C@@H](Cc1ccccc1)C(=O)N[C@@H](CC(C)C)C(=O)N[C@@H](Cc1cnc[nH]1)C(=O)N[C@@H](CO)C(=O)N[C@@H](CCCCN)C(=O)N[C@@H](CCCCN)C(=O)N[C@@H](CCCCN)C(=O)N[C@@H](Cc1ccccc1)C(N)=O)[C@@H](C)O` [KWKSFIKKLTSKFLHSKKKF], the MIC against Pseudomonas aeruginosa stood at 4.98 µM (≈ 12.5 µg/mL).
For the compound `CC[C@H](C)[C@H](N)C(=O)N[C@@H](CC(N)=O)C(=O)N[C@@H](Cc1c[nH]c2ccccc12)C(=O)N[C@@H](CCCCN)C(=O)N[C@@H](CCCCN)C(=O)N[C@H](C(=O)N[C@@H](Cc1ccccc1)C(=O)N[C@@H](CCC(=O)O)C(=O)N[C@@H](CCCCN)C(=O)N[C@H](C(=O)N[C@@H](CCCCN)C(=O)N[C@@H](CC(N)=O)C(=O)N[C@@H](CC(C)C)C(=O)N[C@H](C(N)=O)C(C)C)C(C)C)[C@@H](C)CC` [INWKKIFEKVKNLV], the MIC with Escherichia coli was 7.5 µM and 6.25 µM and 3.12 µM; in the assay with Pseudomonas aeruginosa, 86.6 µM (≈ 152 µg/mL); in the assay on Staphylococcus aureus, 11.8 µM (≈ 20.7 µg/mL).
Consider `CC[C@H](C)[C@H](NC(=O)[C@@H](NC(=O)[C@@H](N)Cc1ccccc1)[C@@H](C)CC)C(=O)N[C@@H](Cc1c[nH]c2ccccc12)C(=O)N1CCC[C@H]1C(=O)N[C@@H](CC(C)C)C(=O)N[C@@H](CCCN=C(N)N)C(=O)N[C@@H](Cc1ccc(O)cc1)C(=O)N[C@@H](CCCN=C(N)N)C(=O)N[C@@H](CCCCN)C(N)=O` [FIIWPLRYRK], for which the MIC in assay [1] is 180 µM (≈ 250 µg/mL); in assay [2] it was 359 µM (≈ 500 µg/mL).
